# Reference: patent publication US20240269298A1, “PHOSPHONYL DERIVATIVE, AND COMPOSITION AND PHARMACEUTICAL APPLICATION THEREOF” (XIZANG HAISCO PHARMACEUTICAL CO., LTD., priority 2021, published 2024)
# Like-named read-outs stand apart in the source and are kept apart here.
# Experiments:
# [1] = tested on: NCI-H1975 (EGFR-L858R-T790M) cells; assay: Inhibitory activity on proliferation of NCI-H1975 (EGFR-L858R-T790M) cells (CTG, 72 h); format: cell-based; conditions: Homo sapiens
# Method in brief: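 IC50 values come from S-shaped dose-survival fits of CTG signal expressed as % of vehicle. Compound exposure lasted 72 h at 37 °C with 0.1% DMSO; seeding was 3000 A431 cells/well in DMEM+10% FBS and 1000 NCI-H1975 cells/well in RPMI1640+10% FBS.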
# A431 (EGFR-WT) cells = assay: Inhibitory activity on proliferation of A431 (EGFR-WT) cells (CTG, 72 h); format: cell-based; conditions: Homo sapiens, A-431
# Protocol: NCI-H1975 (EGFR-L858R-T790M) and A431 (EGFR-WT) cells were purchased from ATCC and cultured in an incubator at 37° C. with 5% CO2, and the culture mediums were RPMI1640+10% FBS and DMEM+10% FBS, respectively. On the first day, NCI-H1975 (EGFR-L858R-T790M) and A431 (EGFR-WT) cells in the logarithmic phase were collected, and viable cells were counted using an automatic cell analyzer (countstar). The cell suspensions were adjusted with the culture mediums and plated on a 96-well cell culture plate at 1000 cells/well for NCI-H1975 (EGFR-L858R-T790M) cells and at 3000 cells/well for A431 cells. The next day, the culture mediums were aspirated, and 90 μL of fresh culture mediums and 10 μL of the compounds at different concentrations were added to each well, wherein the final concentration of DMSO in each well was 0.1%. The plate was cultured in the incubator at 37° C. with 5% CO2 for 72 hours. After 72 hours of drug treatment, 50 μL of CTG solution (promega, G7572), which was already pre-melted and equilibrated to room temperature, was added to each well, and the mixtures were uniformly mixed for 2 min using a microplate shaker. The plate was placed at room temperature for 10 min, and then […] signal values were measured using a microplate reader (PHERAstar FSX).
# Surviving cells % was calculated based on Vsample/Vvehicle control×100%, wherein Vsample was the readout of the drug-treated group, and Vvehicle control was the average value of the vehicle control group. Using the origin 9.2 software and nonlinear regression model, S-shaped dose-survival curves were plotted, and IC50 values were calculated.
# [2] = read-out: IC50 (value in brackets)
SMILES,IC50 ([1]; read-out: IC50 (class symbol)) [nM],"IC50 [1, 2] [nM]",IC50 (A431 (EGFR-WT) cells) [nM]
"COc1cc(N2CCC(CN3CC4CN(c5ccc6c(c5)C(=O)N(C5CCC(=O)NC5=O)C6=O)CC4C3)CC2)c(-c2cnn(C)c2)cc1Nc1ncc(Br)c(Nc2ccc(-c3ccccc3)cc2P(C)(C)=O)n1 (stereo not drawn) [Compound 78, 5-(5-((1-(4-((5-bromo-4-((3-(dimethylphosphoryl)-[1,1′-biphenyl]-4-yl)amino)pyrimidin-2-yl)amino)-5-methoxy-2-(1-methyl-1H-pyrazol-4-yl)phenyl)piperidin-4-yl)methyl)hexahydropyrrolo[3,4-c]pyrrol-2(1H)-yl)-2-(2,6-dioxopiperidin-3-yl)isoindoline-1,3-dione]",< 100,51,≥ 10000
"COc1cc(N2CCC3(CCN(c4ccc5c(c4)C(=O)N(C4CCC(=O)NC4=O)C5=O)CC3)CC2)c(-c2cnn(C)c2)cc1Nc1ncc(Cl)c(Nc2ccc(F)cc2P(C)(C)=O)n1 (stereo not drawn) [Compound 162, 5-(9-(4-((5-chloro-4-((2-(dimethylphosphoryl)-4-fluorophenyl)amino)pyrimidin-2-yl)amino)-5-methoxy-2-(1-methyl-1H-pyrazol-4-yl)phenyl)-3,9-diazaspiro[5.5]undecan-3-yl)-2-(2,6-dioxopiperidin-3-yl)isoindoline-1,3-dione]",100 to 500,134,≥ 10000
"COc1cc(N2CCC3(CCC(N4CCN(c5ccc6c(c5)C(=O)N(C5CCC(=O)NC5=O)C6=O)CC4)CC3)CC2)c(-c2cnn(C)c2)cc1Nc1ncc(Br)c(Nc2ccc(-c3ccccc3)cc2P(C)(C)=O)n1 (stereo not drawn) [Compound 82, 5-(4-(3-(4-((5-bromo-4-((3-(dimethylphosphoryl)-[1,1′-biphenyl]-4-yl)amino)pyrimidin-2-yl)amino)-5-methoxy-2-(1-methyl-1H-pyrazol-4-yl)phenyl)-3-azaspiro[5.5]undecan-9-yl)piperazin-1-yl)-2-(2,6-dioxopiperidin-3-yl)isoindoline-1,3-dione]",< 100,90,≥ 10000
"COc1cc(N2CCC3(CCN(c4ccc5c(c4)C(=O)N(C4CCC(=O)NC4=O)C5=O)CC3)CC2)c(-c2cnn(C)c2)cc1Nc1ncc(Br)c(Nc2ccccc2P(C)(C)=O)n1 (stereo not drawn) [Compound 164, 5-(9-(4-((5-bromo-4-((2-(dimethylphosphoryl)phenyl)amino)pyrimidin-2-yl)amino)-5-methoxy-2-(1-methyl-1H-pyrazol-4-yl)phenyl)-3,9-diazaspiro[5.5]undecan-3-yl)-2-(2,6-dioxopiperidin-3-yl)isoindoline-1,3-dione]",100 to 500,109,≥ 10000
"COc1cc(N2CCC(N3CCN(CC4CCN(c5ccc6c(c5)C(=O)N(C5CCC(=O)NC5=O)C6=O)CC4)CC3)CC2)c(-c2cnn(C)c2)cc1Nc1ncc(Cl)c(Nc2ccc3nccnc3c2P(C)(C)=O)n1 (stereo not drawn) [Compound 4, 5-(4-((4-(1-(4-((5-chloro-4-((5-(dimethylphosphoryl)quinoxalin-6-yl)amino)pyrimidin-2-yl)amino)-5-methoxy-2-(1-methyl-1H-pyrazol-4-yl)phenyl)piperidin-4-yl)piperazin-1-yl)methyl)piperidin-1-yl)-2-(2,6-dioxopiperidin-3-yl)isoindoline-1,3-dione]",< 100,21,≥ 10000
"COc1cc(N2CCC(F)(CN3CCN(c4ccc5c(c4)C(=O)N(C4CCC(=O)NC4=O)C5=O)CC3)CC2)c(-c2cnn(C)c2)cc1Nc1ncc(Br)c(Nc2ccc(C3CC3)cc2P(C)(C)=O)n1 (stereo not drawn) [Compound 147, 5-(4-((1-(4-((5-bromo-4-((4-cyclopropyl-2-(dimethylphosphoryl)phenyl)amino)pyrimidin-2-yl)amino)-5-methoxy-2-(1-methyl-1H-pyrazol-4-yl)phenyl)-4-fluoropiperidin-4-yl)methyl)piperazin-1-yl)-2-(2,6-dioxopiperidin-3-yl)isoindoline-1,3-dione]",100 to 500,103,≥ 10000
"COc1cc(N2CCC3(CCN(c4ccc5c(c4)C(=O)N(C4CCC(=O)NC4=O)C5=O)CC3)CC2)c(-c2cnn(C)c2)cc1Nc1ncc(Br)c(Nc2ccc(-c3ccccc3)cc2P(C)(C)=O)n1 (stereo not drawn) [Compound 79, 5-(9-(4-((5-bromo-4-((3-(dimethylphosphoryl)-[1,1′-biphenyl]-4-yl)amino)pyrimidin-2-yl)amino)-5-methoxy-2-(1-methyl-1H-pyrazol-4-yl)phenyl)-3,9-diazaspiro[5.5]undecan-3-yl)-2-(2,6-dioxopiperidin-3-yl)isoindoline-1,3-dione]",100 to 500,314,≥ 10000
"COc1cc(N2CCC(C(=O)N3CCN(c4ccc5c(c4)C(=O)N(C4CCC(=O)NC4=O)C5=O)CC3)CC2)c(-c2cnn(C)c2)cc1Nc1ncc(Br)c(Nc2ccc(C3CC3)cc2P(C)(C)=O)n1 (stereo not drawn) [Compound 145, 5-(4-(1-(4-((5-bromo-4-((4-cyclopropyl-2-(dimethylphosphoryl)phenyl)amino)pyrimidin-2-yl)amino)-5-methoxy-2-(1-methyl-1H-pyrazol-4-yl)phenyl)piperidine-4-carbonyl)piperazin-1-yl)-2-(2,6-dioxopiperidin-3-yl)isoindoline-1,3-dione]",< 100,69,≥ 10000
"COc1cc(N2CCN(C3CCC4(CC3)CCN(c3ccc5c(c3)C(=O)N(C3CCC(=O)NC3=O)C5=O)CC4)CC2)c(-c2cnn(C)c2)cc1Nc1ncc(Br)c(Nc2ccc(-c3ccccc3)cc2P(C)(C)=O)n1 (stereo not drawn) [Compound 85, 5-(9-(4-(4-((5-bromo-4-((3-(dimethylphosphoryl)-[1,1′-biphenyl]-4-yl)amino)pyrimidin-2-yl)amino)-5-methoxy-2-(1-methyl-1H-pyrazol-4-yl)phenyl)piperazin-1-yl)-3-azaspiro [5.5]undecan-3-yl)-2-(2,6-dioxopiperidin-3-yl)isoindoline-1,3-dione]",< 100,77,≥ 10000
"CCn1cc(-c2cc(Nc3ncc(Cl)c(Nc4ccc(-c5ccccc5)cc4P(C)(C)=O)n3)c(OC)cc2N2CCC(CN3CCN(c4ccc5c(c4)C(=O)N(C4CCC(=O)NC4=O)C5=O)CC3)CC2)cn1 (stereo not drawn) [Compound 110, 5-(4-((1-(4-((5-chloro-4-((3-(dimethylphosphoryl)-[1,1′-biphenyl]-4-yl)amino)pyrimidin-2-yl)amino)-2-(1-ethyl-1H-pyrazol-4-yl)-5-methoxyphenyl)piperidin-4-yl)methyl)piperazin-1-yl)-2-(2,6-dioxopiperidin-3-yl)isoindoline-1,3-dione]",100 to 500,232,≥ 10000
"COc1cc(N2CCN(C3CN(c4ccc5c(c4)C(=O)N(C4CCC(=O)NC4=O)C5=O)C3)CC2)c(-c2cnn(C)c2)cc1Nc1ncc(Cl)c(Nc2ccc(C3CC3)cc2P(C)(C)=O)n1 (stereo not drawn) [Compound 148, 5-(3-(4-(4-((5-chloro-4-((4-cyclopropyl-2-(dimethylphosphoryl)phenyl)amino)pyrimidin-2-yl)amino)-5-methoxy-2-(1-methyl-1H-pyrazol-4-yl)phenyl)piperazin-1-yl)azetidin-1-yl)-2-(2,6-dioxopiperidin-3-yl)isoindoline-1,3-dione]",< 100,79,≥ 10000
"COc1cc(N2CCC(C3CCN(C4CC5(CCN(c6ccc7c(c6)C(=O)N(C6CCC(=O)NC6=O)C7=O)CC5)C4)CC3)CC2)c(-c2cnn(C)c2)cc1Nc1ncc(Cl)c(Nc2ccc3nccnc3c2P(C)(C)=O)n1 (stereo not drawn) [Trifluoroacetate of compound 14, 5-(2-(1′-(4-((5-chloro-4-((5-(dimethylphosphoryl)quinoxalin-6-yl)amino)pyrimidin-2-yl)amino)-5-methoxy-2-(1-methyl-1H-pyrazol-4-yl)phenyl)-[4,4′-bipiperidin]-1-yl)-7-azaspiro[3.5]nonan-7-yl)-2-(2,6-dioxopiperidin-3-yl)isoindoline-1,3-dione]",< 100,49,≥ 10000
"COc1cc(N2CCN(c3ccc4c(c3)C(=O)N(C3CCC(=O)NC3=O)C4=O)CC2)c(-c2cnn(C)c2)cc1Nc1ncc(Br)c(Nc2ccc(C3CC3)cc2P(C)(C)=O)n1 (stereo not drawn) [Compound 166, 5-(4-(4-((5-bromo-4-((4-cyclopropyl-2-(dimethylphosphoryl)phenyl)amino)pyrimidin-2-yl)amino)-5-methoxy-2-(1-methyl-1H-pyrazol-4-yl)phenyl)piperazin-1-yl)-2-(2,6-dioxopiperidin-3-yl)isoindoline-1,3-dione]",100 to 500,115,≥ 10000
